According to US9808448B2, “Pharmaceutical compounds and use of same in cancer and tauopathies” (THE REGENTS OF THE UNIVERSITY OF MICHIGAN, priority 2013, dated 2017):

Tested on: MDA-MB-231
Assay: Cancer activity screen (MTT cell survival), MDA-MB-231
Type: cell-based
Details: Homo sapiens, second table

Row | Compound | IC50 [µM]
1 | CCn1c(=O)/c(=C2\Sc3cc(Cl)ccc3N2C)s/c1=C\c1scc[n+]1Cc1cccc(C(F)(F)F)c1 | 0.4 ± 0.04
2 | CCn1c(=O)/c(=C2\Sc3cc(C(F)(F)F)ccc3N2C)s/c1=C\c1cccc[n+]1CC | 2.7 ± 0.6
3 | CCn1c(=O)/c(=C2\Sc3c(ccc(F)c3F)N2C)s/c1=C\c1scc[n+]1Cc1ccsc1C(=O)OC | 0.21 ± 0.03
4 | CCn1c(=O)/c(=C2\Sc3cc(Cl)ccc3N2C)s/c1=C\c1scc[n+]1Cc1ccc(F)cc1 | 1.07 ± 0.19
5 | CCn1c(=O)/c(=C2\Sc3ccc(OC(F)(F)F)cc3N2C)s/c1=C\c1scc[n+]1Cc1ccccc1 | 1.25 ± 0.13
6 | COC(=O)CCn1c(=O)/c(=C2\Sc3cc(F)ccc3N2C)s/c1=C\c1ccccn1 | 9 ± 1.7
7 | C=CCn1c(=O)/c(=C2\Sc3cccc(F)c3N2C)s/c1=C\c1ccncc1 | 0.38 ± 0.03
8 | CCn1c(=O)/c(=C2\Sc3ccc(Cl)cc3N2C)s/c1=C\c1scc[n+]1Cc1ccccc1C(F)(F)F | 0.25 ± 0.03
9 | CCn1c(=O)/c(=C2\Sc3cc(C(F)(F)F)ccc3N2C)s/c1=C\c1scc[n+]1CC | 4.2 ± 0.6
10 | CCn1c(=O)/c(=C2\Sc3c(ccc(F)c3F)N2C)s/c1=C\c1scc[n+]1Cc1ccc(C(F)(F)F)o1 | 0.51 ± 0.05
11 | CCn1c(=O)/c(=C2\Sc3cc(Cl)ccc3N2C)s/c1=C\c1scc[n+]1Cc1ccsc1Br | 0.2 ± 0.02
12 | CCn1c(=O)/c(=C2\Sc3c(ccc(F)c3F)N2C)s/c1=C\c1nccs1 | 11.7 ± 2.3
13 | CN1/C(=c2\s/c(=C\c3ccncc3)n(CC(=O)O)c2=O)Sc2cc(F)ccc21 | > 20
14 | CCn1c(=O)/c(=C2\Sc3cc(Cl)ccc3N2C)s/c1=C\c1scc[n+]1Cc1ccc(C(=O)OC)o1 | 0.97 ± 0.1
15 | CCn1c(=O)/c(=C2\Sc3cc(Cl)ccc3N2C)s/c1=C\c1scc[n+]1Cc1ccc(C(F)(F)F)cc1 | 1.2 ± 0.15
16 | CCn1c(=O)/c(=C2\Sc3cc(F)ccc3N2C)s/c1=C\c1scc[n+]1Cc1ccccc1C(F)(F)F | 0.21 ± 0.03
17 | CCn1c(=O)/c(=C2\Sc3c(ccc(F)c3F)N2C)s/c1=C\c1cccc[n+]1Cc1ccsc1 | 2.09 ± 0.31
18 | CCn1c(=O)/c(=C2\Sc3cc(C(F)(F)F)ccc3N2C)s/c1=C\c1scc[n+]1C | 8.5 ± 1
19 | CCn1c(=O)/c(=C2\Sc3cc(F)ccc3N2C)s/c1=C\c1scc[n+]1Cc1ccc(C(F)(F)F)o1 | 0.16 ± 0.03
20 | COC(=O)Cn1c(=O)/c(=C2\Sc3cc(F)ccc3N2C)s/c1=C\c1ccccn1 | > 20
21 | CN1/C(=c2\s/c(=C\c3scc[n+]3Cc3ccccc3)n(C3CC3)c2=O)Sc2cc(F)ccc21 | 0.76 ± 0.08
22 | COC(=O)Cn1c(=O)/c(=C2\Sc3cc(C(F)(F)F)ccc3N2C)s/c1=C\c1scc[n+]1Cc1ccccc1 | 2.1 ± 0.4
23 | CCn1c(=O)/c(=C2\Sc3cc(Cl)ccc3N2C)s/c1=C\c1scc[n+]1Cc1cc(-c2ccccc2)no1 | 0.17 ± 0.01
24 | COC(=O)Cn1c(=O)/c(=C2\Sc3ccc(F)cc3N2C)s/c1=C\c1ccncc1 | > 20
25 | CCn1c(=O)/c(=C2\Sc3cc(Cl)ccc3N2C)s/c1=C\c1scc[n+]1C(C)C(=O)c1ccccc1 (stereo not shown) | 0.34 ± 0.03
26 | CCn1c(=O)/c(=C2\Sc3cc(C)ccc3N2C)s/c1=C\c1scc[n+]1Cc1ccccc1 | 0.041 ± 0.006
27 | COC(=O)[C@@H](C)n1c(=O)/c(=C2\Sc3cc(F)ccc3N2C)s/c1=C\c1scc[n+]1Cc1ccccc1 | 1.2 ± 0.14

Row | Compound | IC50 [µM]
28 | CCn1c(=O)/c(=C2\Sc3c(ccc(F)c3F)N2C)s/c1=C\c1cccc[n+]1Cc1ccccc1C(F)(F)F | 0.38 ± 0.07
29 | CCn1c(=O)/c(=C2\Sc3cc(C(F)(F)F)ccc3N2C)s/c1=C\c1scc[n+]1Cc1ccccc1 | 0.36 ± 0.03
30 | CCn1c(=O)/c(=C2\Sc3cc(Cl)ccc3N2C)s/c1=C\c1scc[n+]1Cc1ccc(C(F)(F)F)o1 | 0.12 ± 0.02
31 | CCn1c(=O)/c(=C2\Sc3ccc(Cl)cc3N2C)s/c1=C\c1nccs1 | 1.5 ± 0.3
32 | COC(=O)Cn1c(=O)/c(=C2\Sc3c(F)cccc3N2C)s/c1=C\c1ccccn1 | > 20
33 | COC(=O)CCn1c(=O)/c(=C2\Sc3cc(Cl)ccc3N2C)s/c1=C\c1ccccn1 | > 20
34 | CCn1c(=O)/c(=C2\Sc3cc(Cl)ccc3N2C)s/c1=C\c1scc[n+]1Cc1cccc(F)c1 | 1.01 ± 0.16
35 | COC(=O)Cn1c(=O)/c(=C2\Sc3c(F)cccc3N2C)s/c1=C\c1ccncc1 | > 20
36 | CCn1c(=O)/c(=C2\Sc3c(ccc(F)c3F)N2C)s/c1=C\c1cccc[n+]1Cc1ccsc1Br | 0.92 ± 0.17
37 | CCn1c(=O)/c(=C2\Sc3ccc(Cl)cc3N2C)s/c1=C\c1scc[n+]1Cc1ccsc1C(=O)OC | 0.16 ± 0.02
38 | CCn1c(=O)/c(=C2\Sc3c(ccc(F)c3F)N2C)s/c1=C\c1cccc[n+]1Cc1cc(-c2ccccc2)no1 | 1.33 ± 0.2
39 | CCn1c(=O)/c(=C2\Sc3ccc(Cl)cc3N2C)s/c1=C\c1scc[n+]1Cc1ccsc1Br | 0.24 ± 0.03
40 | CCn1c(=O)/c(=C2\Sc3cc(Cl)ccc3N2C)s/c1=C\c1scc[n+]1Cc1ccsc1C(=O)OC | 0.076 ± 0.01
41 | CCn1c(=O)/c(=C2\Sc3ccc(C)cc3N2C)s/c1=C\c1scc[n+]1Cc1ccccc1 | 0.078 ± 0.01
42 | COC(=O)CCn1c(=O)/c(=C2\Sc3cc(Cl)ccc3N2C)s/c1=C\c1scc[n+]1Cc1ccccc1 | 0.24 ± 0.03
43 | CCn1c(=O)/c(=C2\Sc3cc(Cl)ccc3N2C)s/c1=C\c1scc[n+]1Cc1ccccc1C(F)(F)F | 0.13 ± 0.01
44 | CCn1c(=O)/c(=C2\Sc3c(ccc(F)c3F)N2C)s/c1=C\c1scc[n+]1Cc1ccsc1Br | 0.48 ± 0.06
45 | CCn1c(=O)/c(=C2\Sc3cc(Cl)ccc3N2C)s/c1=C\c1scc[n+]1Cc1ccc([N+](=O)[O-])o1 | > 30
46 | CCOC(=O)c1ccc(C[n+]2ccsc2/C=c2\s/c(=C3/Sc4cc(Cl)ccc4N3C)c(=O)n2CC)o1 | 0.72 ± 0.08
47 | CCn1c(=O)/c(=C2\Sc3ccc(S(C)(=O)=O)cc3N2C)s/c1=C\c1scc[n+]1Cc1ccccc1 | > 20
48 | CCn1c(=O)/c(=C2\Sc3ccc(Cl)cc3N2C)s/c1=C\c1scc[n+]1Cc1ccsc1 | 0.44 ± 0.05
49 | COC(=O)CCn1c(=O)/c(=C2\Sc3cc(F)ccc3N2C)s/c1=C\c1scc[n+]1Cc1ccccc1 | 0.96 ± 0.07
50 | CCn1c(=O)/c(=C2\Sc3cc(OC(F)(F)F)ccc3N2C)s/c1=C\c1cccc[n+]1Cc1ccccc1 | 0.71 ± 0.12
51 | COC(=O)Cn1c(=O)/c(=C2\Sc3cc(Cl)ccc3N2C)s/c1=C\c1scc[n+]1Cc1ccccc1 | > 20
52 | CCn1c(=O)/c(=C2\Sc3c(ccc(F)c3F)N2C)s/c1=C\c1cccc[n+]1Cc1cc(C)on1 | 3.72 ± 0.41
53 | CCn1c(=O)/c(=C2\Sc3ccc(Cl)cc3N2C)s/c1=C\c1scc[n+]1C | 3.1 ± 0.4
54 | CCn1c(=O)/c(=C2\Sc3cccc(C)c3N2C)s/c1=C\c1scc[n+]1Cc1ccccc1 | 0.21 ± 0.04

Row | Compound | IC50 [µM]
55 | CCn1c(=O)/c(=C2\Sc3cc(C(F)(F)F)ccc3N2C)s/c1=C\c1nccs1 | 2.6 ± 0.5
56 | COC(=O)Cn1c(=O)/c(=C2\Sc3ccc(F)cc3N2C)s/c1=C\c1ccccn1 | > 20
57 | CCn1c(=O)/c(=C2\Sc3cc(Cl)ccc3N2C)s/c1=C\c1nccs1 | 2.3 ± 0.6
58 | CCn1c(=O)/c(=C2\Sc3cc(Cl)ccc3N2C)s/c1=C\c1scc[n+]1Cc1ccccc1F | 0.29 ± 0.04
59 | CCn1c(=O)/c(=C2\Sc3cc(Cl)ccc3N2C)s/c1=C\c1scc[n+]1Cc1cc(C)on1 | 0.22 ± 0.02
60 | COC(=O)Cn1c(=O)/c(=C2\Sc3cccc(F)c3N2C)s/c1=C\c1ccccn1 | > 20
61 | COC(=O)Cn1c(=O)/c(=C2\Sc3cccc(F)c3N2C)s/c1=C\c1ccncc1 | > 20
62 | CCn1c(=O)/c(=C2\Sc3cc(Cl)ccc3N2C)s/c1=C\c1scc[n+]1Cc1cccnc1Br | 1.6 ± 0.2
63 | CCn1c(=O)/c(=C2\Sc3cc(F)ccc3N2C)s/c1=C\c1scc[n+]1Cc1ccsc1C(=O)OC | 0.14 ± 0.02
64 | CCn1c(=O)/c(=C2\Sc3ccc(Cl)cc3N2C)s/c1=C\c1scc[n+]1Cc1cc(C)on1 | 1.05 ± 0.09
65 | CCn1c(=O)/c(=C2\Sc3c(ccc(F)c3F)N2C)s/c1=C\c1scc[n+]1Cc1ccsc1 | 0.81 ± 0.06
66 | CCn1c(=O)/c(=C2\Sc3ccc(Cl)cc3N2C)s/c1=C\c1scc[n+]1Cc1ccc(C(F)(F)F)o1 | 0.3 ± 0.02
67 | CCn1c(=O)/c(=C2\Sc3ccc(Cl)cc3N2C)s/c1=C\c1scc[n+]1Cc1cc(-c2ccccc2)no1 | 0.5 ± 0.04
68 | CCn1c(=O)/c(=C2\Sc3cc(Cl)ccc3N2C)s/c1=C\c1scc[n+]1Cc1csc(C)n1 | 0.74 ± 0.07
69 | CCn1c(=O)/c(=C2\Sc3c(ccc(F)c3F)N2C)s/c1=C\c1scc[n+]1Cc1cc(C)on1 | 1.33 ± 0.11
70 | CN1/C(=c2\s/c(=C\c3scc[n+]3Cc3ccccc3)n(C3CC3)c2=O)Sc2cc(Cl)ccc21 | 0.56 ± 0.08
71 | COC(=O)[C@@H](C)n1c(=O)/c(=C2\Sc3cc(F)ccc3N2C)s/c1=C\c1ccccn1 | > 20
72 | CCn1c(=O)/c(=C2\Sc3cc(F)ccc3N2C)s/c1=C\c1scc[n+]1Cc1ccccc1 | 0.15 ± 0.01
73 | CCn1c(=O)/c(=C2\Sc3cc(OC(F)(F)F)ccc3N2C)s/c1=C\c1scc[n+]1Cc1ccc(C(F)(F)F)o1 | 0.51 ± 0.03
74 | CN1/C(=c2\s/c(=C\c3ccncc3)n(CC(=O)O)c2=O)Sc2cccc(F)c21 | > 20
75 | CCn1c(=O)/c(=C2\Sc3c(ccc(F)c3F)N2C)s/c1=C\c1cccc[n+]1Cc1ccc(C(F)(F)F)o1 | 0.92 ± 0.1
76 | COC(=O)Cn1c(=O)/c(=C2\Sc3cc(F)ccc3N2C)s/c1=C\c1scc[n+]1Cc1ccccc1 | 2.9 ± 0.3
77 | CCn1c(=O)/c(=C2\Sc3c(C)cccc3N2C)s/c1=C\c1scc[n+]1Cc1ccccc1 | 0.25 ± 0.03
78 | CCn1c(=O)/c(=C2\Sc3cc(C#N)ccc3N2C)s/c1=C\c1ccccn1 | 22.3 ± 4.61
79 | CN1/C(=c2\s/c(=C\c3scc[n+]3Cc3ccccc3C(F)(F)F)n(C)c2=O)Sc2c1ccc(F)c2F | 0.12 ± 0.009
